This is an account of results in ChEMBL document CHEMBL5608235, “Tricyclic Benzo[1,3]oxazinyloxazolidinones as Potent Antibacterial Agents against Drug-Resistant Pathogens” (J Med Chem, 2024).

Series [1] has as its system Mycobacterium tuberculosis. Briefly: Antibacterial activity against Mycobacterium tuberculosis H37Rv assessed as inhibition of bacterial growth incubated for 7 days by alamar blue assay. In kind it is functional. The conditions noted are these: 168 h, time 7 day.
For series [2], the system named is Staphylococcus aureus. Briefly: Antibacterial activity against Staphylococcus aureus ATCC25923 assessed as inhibition of bacterial growth incubated for 18 hrs by microdilution broth assay. In kind it is functional. On the technique in general: In broth dilution the organism is exposed to a series of concentrations in liquid medium.
The test system of series [3] is Enterococcus faecalis. The experiment in a line: Antibacterial activity against Enterococcus faecalis ATCC29212 assessed as inhibition of bacterial growth incubated for 18 hrs by microdilution broth assay. In kind it is functional.
Another series deals with Bacillus subtilis. The experiment in a line: Antibacterial activity against Bacillus subtilis ATCC6633 assessed as inhibition of bacterial growth incubated for 18 hrs by microdilution broth assay. In kind it is functional.
The subject of series [4] is Staphylococcus epidermidis. The experiment in a line: Antibacterial activity against Staphylococcus epidermidis ATCC12228 assessed as inhibition of bacterial growth incubated for 18 hrs by microdilution broth assay. In kind it is functional.
A short description of series [5]: Cytotoxicity against African green monkey Vero cells incubated for 48 hrs by MTT assay. It counts as toxicity, cell-based, Chlorocebus sabaeus.
Series [6] concerns Staphylococcus aureus. Briefly: Antibacterial activity against methicillin resistant Staphylococcus aureus clinical isolate 20-1 assessed as inhibition of bacterial growth incubated for 7 days by alamar blue assay. In kind it is functional. The conditions noted are these: clinical isolate 20-1, 168 h, time 7 day. In general terms: Alamar Blue is a resazurin reagent that responds to reducing activity.

In series [7] the test system is Staphylococcus aureus. Briefly: Antibacterial activity against methicillin resistant Staphylococcus aureus clinical isolate 20-2 assessed as inhibition of bacterial growth incubated for 7 days by alamar blue assay. In kind it is functional. As to conditions: clinical isolate 20-2, 168 h, time 7 day.
The test system of series [8] is Staphylococcus epidermidis. The experiment in a line: Antibacterial activity against methicillin resistant Staphylococcus epidermidis clinical isolate 20-1 assessed as inhibition of bacterial growth incubated for 7 days by alamar blue assay. In kind it is functional. The conditions noted are these: clinical isolate 20-1, 168 h, time 7 day.
In series [9] the test system is Staphylococcus epidermidis. The experiment in a line: Antibacterial activity against methicillin resistant Staphylococcus epidermidis clinical isolate 20-2 assessed as inhibition of bacterial growth incubated for 7 days by alamar blue assay. As to conditions: clinical isolate 20-2, 168 h, time 7 day. In kind it is functional.
Series [10] relates to Staphylococcus aureus. Briefly: Antibacterial activity against vancomycin intermediate Staphylococcus aureus ATCC700699 assessed as inhibition of bacterial growth incubated for 7 days by alamar blue assay. It counts as functional. As to conditions: ATCC700699, 168 h, time 7 day.
Another series deals with Enterococcus. Briefly: Antibacterial activity against vancomycin resistant Enterococcus clinical isolate 20-1 assessed as inhibition of bacterial growth incubated for 7 days by alamar blue assay. It counts as functional. As to conditions: clinical isolate 20-1, 168 h, time 7 day.
The subject of series [11] is Staphylococcus aureus. The experiment in a line: Antibacterial activity against Linezolid resistant Staphylococcus aureus clinical isolate 20-1 assessed as inhibition of bacterial growth incubated for 7 days by alamar blue assay. In kind it is functional. The conditions noted are these: clinical isolate 20-1, 168 h, time 7 day.
Series [12] has as its system Staphylococcus aureus. The experiment in a line: Antibacterial activity against Linezolid resistant Staphylococcus aureus clinical isolate 20-2 assessed as inhibition of bacterial growth incubated for 7 days by alamar blue assay. It counts as functional. As to conditions: clinical isolate 20-2, 168 h, time 7 day.
Series [13] concerns Enterococcus faecalis. Briefly: Antibacterial activity against Linezolid resistant Enterococcus faecalis clinical isolate 20-1 assessed as inhibition of bacterial growth incubated for 7 days by alamar blue assay. In kind it is functional. As to conditions: clinical isolate 20-1, 168 h, time 7 day.
Series [14] concerns Enterococcus faecalis. The experiment in a line: Antibacterial activity against Linezolid resistant Enterococcus faecalis clinical isolate 20-2 assessed as inhibition of bacterial growth incubated for 7 days by alamar blue assay. The conditions noted are these: clinical isolate 20-2, 168 h, time 7 day. In kind it is functional.

Converted amounts (≈) assume the structure as drawn. Some results are limits rather than exact numbers.

What is called MIC is the lowest concentration found to suppress growth. The IC50 is the midpoint of a concentration-inhibition curve. As to `CC(=O)NC[C@@H]1OC(=O)N2Cc3c(cc(F)c(-c4ccc(C#N)nc4)c3F)O[C@@H]12`, the MIC in series [1] is 0.97 µg/mL (≈ 2.42 µM); in the series with Staphylococcus aureus [2], 1 µg/mL (≈ 2.5 µM); in the series with Enterococcus faecalis [3] it was 0.5 µg/mL (≈ 1.25 µM); in the series on Bacillus subtilis, 0.032 µg/mL (≈ 0.0799 µM); in series [4] it was 0.125 µg/mL (≈ 0.312 µM); in the series on Staphylococcus aureus [6], 1 µg/mL (≈ 2.5 µM). Further, the MIC in the series on Staphylococcus aureus [7] amounted to 1 µg/mL (≈ 2.5 µM); in [8], 0.5 µg/mL (≈ 1.25 µM); in series [9], 0.5 µg/mL (≈ 1.25 µM); with Staphylococcus aureus [10] it was 1 µg/mL (≈ 2.5 µM); in the series on Enterococcus, 1 µg/mL (≈ 2.5 µM); with Staphylococcus aureus [11] it was 8 µg/mL (≈ 20 µM). Besides, the minimum inhibitory concentration (MIC) with Staphylococcus aureus [12] came to 8 µg/mL (≈ 20 µM); in the series with Enterococcus faecalis [13], 2 µg/mL (≈ 5 µM); in the series with Enterococcus faecalis [14], 2 µg/mL (≈ 5 µM). Moreover, in series [5], the half-inhibitory concentration (IC50) at 48 h is > 64 µg/mL.

Regarding `CC(=O)NC[C@H]1OC(=O)N2Cc3cc(-c4ccc(C#N)nc4)c(F)cc3O[C@@H]12`, the MIC in series [1] was 0.48 µg/mL (≈ 1.26 µM); with Staphylococcus aureus [2], 0.125 µg/mL (≈ 0.327 µM); with Enterococcus faecalis [3], 0.5 µg/mL (≈ 1.31 µM); in the series on Bacillus subtilis, 0.125 µg/mL (≈ 0.327 µM). For the same compound, in [5], the concentration for half-maximal inhibition (IC50) at 48 h is > 64 µg/mL.

As to `Cn1nnc(-c2ccc(-c3c(F)cc4c(c3F)CN3C(=O)O[C@@H](CN)[C@@H]3O4)cn2)n1`, the minimum inhibitory concentration (MIC) was 0.74 µg/mL (≈ 1.78 µM) in [1]; > 64 µg/mL with Staphylococcus aureus [2]; > 64 µg/mL in the series with Enterococcus faecalis [3]; 64 µg/mL (≈ 154 µM) in the series on Bacillus subtilis; 64 µg/mL (≈ 154 µM) in [4]. In addition, the IC50 at 48 h in series [5] came to 16 µg/mL (≈ 38.5 µM).

Turning to `CC(=O)NC[C@@H]1OC(=O)N2Cc3cc(-c4ccc(C(F)(F)F)nc4)c(F)cc3O[C@@H]12`, the MIC in series [1] was 6.7 µg/mL (≈ 15.8 µM); with Staphylococcus aureus [2] it was 32 µg/mL (≈ 75.2 µM); with Enterococcus faecalis [3], 1 µg/mL (≈ 2.35 µM); in the series on Bacillus subtilis it was 1 µg/mL (≈ 2.35 µM); in series [4], 0.5 µg/mL (≈ 1.18 µM).

Regarding `CC(=O)NC[C@@H]1OC(=O)N2Cc3c(cc(F)c(-c4ccc(C(C)=O)cc4)c3F)O[C@@H]12`, the MIC in [1] came to 0.93 µg/mL (≈ 2.23 µM); with Staphylococcus aureus [2], 4 µg/mL (≈ 9.61 µM); with Enterococcus faecalis [3], 0.25 µg/mL (≈ 0.6 µM); in the series on Bacillus subtilis, 0.125 µg/mL (≈ 0.3 µM); in series [4], 0.25 µg/mL (≈ 0.6 µM). Moreover, in series [5], the IC50 at 48 h was > 64 µg/mL.

Take `CC(=O)c1ccc(-c2c(F)cc3c(c2F)CN2C(=O)O[C@@H](CN)[C@@H]2O3)cc1`: the MIC is 0.43 µg/mL (≈ 1.15 µM) in series [1]; 64 µg/mL (≈ 171 µM) in the series with Staphylococcus aureus [2]; > 64 µg/mL in the series with Enterococcus faecalis [3]; > 64 µg/mL with Bacillus subtilis; 64 µg/mL (≈ 171 µM) in series [4]. The same compound yielded a concentration for half-maximal inhibition (IC50) at 48 h in series [5] of 34 µg/mL (≈ 90.8 µM).

In the case of `COc1ccc(-c2c(F)cc3c(c2F)CN2C(=O)O[C@@H](CN)[C@@H]2O3)cn1`, the minimal inhibitory concentration (MIC) was 1.82 µg/mL (≈ 5.01 µM) in series [1]; 64 µg/mL (≈ 176 µM) in the series with Staphylococcus aureus [2]; > 64 µg/mL with Enterococcus faecalis [3]; 64 µg/mL (≈ 176 µM) in the series on Bacillus subtilis; 64 µg/mL (≈ 176 µM) in series [4].

For `CC(=O)NC[C@@H]1OC(=O)N2Cc3c(cc(F)c(-c4ccc(-c5nnn(C)n5)nc4)c3F)O[C@@H]12`, the MIC in series [1] was determined as 0.74 µg/mL (≈ 1.62 µM); with Staphylococcus aureus [2], 1 µg/mL (≈ 2.19 µM); in the series with Enterococcus faecalis [3] it was 2 µg/mL (≈ 4.37 µM); with Bacillus subtilis, 0.125 µg/mL (≈ 0.273 µM); in [4] it was 2 µg/mL (≈ 4.37 µM); with Staphylococcus aureus [6], 1 µg/mL (≈ 2.19 µM). The minimal inhibitory concentration (MIC) turned out to be 1 µg/mL (≈ 2.19 µM) in the series with Staphylococcus aureus [7]; 0.5 µg/mL (≈ 1.09 µM) in series [8]; 0.5 µg/mL (≈ 1.09 µM) in series [9]; 1 µg/mL (≈ 2.19 µM) in the series with Staphylococcus aureus [10]; 1 µg/mL (≈ 2.19 µM) in the series with Enterococcus; 8 µg/mL (≈ 17.5 µM) with Staphylococcus aureus [11]. Moreover, the minimal inhibitory concentration (MIC) in the series with Staphylococcus aureus [12] was 8 µg/mL (≈ 17.5 µM); with Enterococcus faecalis [13] it was 2 µg/mL (≈ 4.37 µM); in the series with Enterococcus faecalis [14], 2 µg/mL (≈ 4.37 µM). Also, the IC50 at 48 h in [5] was > 64 µg/mL.

`CC(=O)NC[C@H]1OC(=O)N2Cc3c(cc(F)c(-c4ccc(-c5nnn(C)n5)nc4)c3F)O[C@H]12`: the MIC in series [1] was > 32 µg/mL; in the series on Staphylococcus aureus [2] it was > 64 µg/mL; in the series on Enterococcus faecalis [3], > 64 µg/mL; in the series on Bacillus subtilis, > 64 µg/mL; in series [4], > 64 µg/mL.

Turning to `CC(=O)NC[C@H]1OC(=O)N2Cc3c(cc(F)c(-c4ccc(C#N)nc4)c3F)O[C@H]12`, the MIC in [1] was > 32 µg/mL; in the series on Staphylococcus aureus [2] it was > 64 µg/mL; in the series on Enterococcus faecalis [3] it was > 64 µg/mL; in the series with Bacillus subtilis, > 64 µg/mL; in series [4], > 64 µg/mL.

Regarding `CC(=O)NC[C@@H]1OC(=O)N2Cc3cc(-c4ccc(C(C)=O)cc4)c(F)cc3O[C@@H]12`, the minimum inhibitory concentration (MIC) in [1] amounted to 0.74 µg/mL (≈ 1.86 µM); with Staphylococcus aureus [2], 8 µg/mL (≈ 20.1 µM); with Enterococcus faecalis [3], 1 µg/mL (≈ 2.51 µM); with Bacillus subtilis it was 0.5 µg/mL (≈ 1.26 µM); in [4] it was 2 µg/mL (≈ 5.02 µM). Besides, in [5], it took 49 µg/mL (≈ 123 µM) to reach half-maximal inhibition (IC50 at 48 h).

Take `N#Cc1ccc(-c2c(F)cc3c(c2F)CN2C(=O)O[C@@H](CN)[C@@H]2O3)cc1`: the minimum inhibitory concentration (MIC) was 0.99 µg/mL (≈ 2.77 µM) in [1]; 64 µg/mL (≈ 179 µM) with Staphylococcus aureus [2]; > 64 µg/mL with Enterococcus faecalis [3]; 32 µg/mL (≈ 89.6 µM) in the series with Bacillus subtilis; 32 µg/mL (≈ 89.6 µM) in [4]. This compound also had a 50% inhibitory concentration (IC50) at 48 h in [5] of 8 µg/mL (≈ 22.4 µM).
